Assay results taken from US5385927A, “Hydroxy-3-[1-(1H-imidazol-4-yl)alkyl]-benzenecarboximidamides and their use in treating glaucoma” (priority 1993, dated 1995).
Like-named read-outs stand apart in the source and are kept apart here.

Key:
[1] = system: presynaptic α2-adrenergic receptor (guinea-pig ileum); assay: Inhibition of the contraction of the isolated guinea-pig ileum induced by electrical stimulation (presynaptic α2-adrenergic agonist properties); settings: for IC50: concentration that reduces by 50% the intensity of the muscle contraction, electrical stimulation
Excerpt: Stimulation of the guinea-pig ileum.
Longitudinal muscle fragments attached to an isometric force indicator are immersed in Tyrode's solution and are stretched with a force of 1 g (G. M. DREW, Brit. J. Pharmacol. 64, (1978), 293-300; M. ANDREJAK et al., Naunyn-Schmiedeberg's Arch. Pharmacol. 314, (1980), 83-87).
Electrical stimulation of the parasympathetic nerves associated with the ileum fragments causes a contraction of the muscle. This contraction is reduced in the presence of a presynaptic α2 -agonist and the magnitude by which the contraction is reduced depends on the concentration of the agonist used. This effect is antagonized by the simultaneous presence of an α2 -antagonist such as α-yohimbine.
The compounds to be studied have been tested at increasing concentrations ranging from 10^-10 to 10^-3 mole/l. The concentration (IC50 in mole/l) that reduces by 50% the intensity of the muscle contraction is determined.
Table I gives the IC50 concentrations (in mole/l) obtained for the compounds of the invention (except for compound 6, for which compound the IC30 concentration is given).

[2] = system: intraocular pressure of the treated eye; assay: Intraocular pressure variation in awake normotensive rabbits, treated eye; type: in vivo, rabbit (New Zealand White)
Procedure: the 1st column indicates the compound tested,
the 2nd column indicates the concentration of the compound, in percent (in weight per volume),
the 3rd, 4th, 5th, 6th and 7th columns indicate the variation in intraocular pressure (ΔP) expressed in percent, with respect to an animal treated with a collyrium containing no compound to be tested, measured after 30 minutes, 1, 2, 3 or 6 hours respectively.

[3] = system: male NMRI mice; assay: Toxicity by means of Irwin's test, intraperitoneal; type: in vivo, mouse (NMRI); settings: death of two out of three animals within 24 hours
Procedure: The toxicity of the compounds according to the present invention has been determined in male NMRI mice by means of Irwin's test (S. IRWIN, Psychopharmacologia, 13, (1968), 222-257). Progressive doses of the compound to be tested are administered intraperitoneally to groups of three mice until the lethal dose is reached (dose which causes the death of two out of three animals within 24 hours).
It can be seen from this Table that the compounds of the invention have a very low toxicity.

[4] = system: mucous membrane of the treated eye (conjunctivae); assay: Effect on the mucous membrane of the treated eye (hypohemia); type: in vivo, rabbit (New Zealand White)
Excerpt: Hypohemia manifests itself by insufficient blood irrigation of the conjunctiva, which can result in irreversible local ischemias.

[5] = background of the patent, cited from earlier work
[6] = system: intraocular pressure of the contralateral eye
Procedure: All the doses tested are administered to three rabbits (weight 2-2.5 kg) of both sexes according to a "cross-over" experimental protocol in which each animal is also used in the control group. […] The intraocular pressure is measured tonometrically with a BIORAD pneumatonograph (DIGILAB MODULAR ONE) after local anesthesia using 2 drops of a 0.4% (in weight per volume) solution of oxybuprocaine hydrochloride.

[7] = system: heart rate
Procedure: The compounds to be studied are administered as a solution in 30 microliters of sterile distilled water (collyrium) at concentrations ranging from 0 (reference) to 0.5% (in weight per volume).

[8] = system: pupil diameter; assay: Effect on the pupil diameter of the treated eye and of the contralateral eye; settings: clonidine: ipsilateral eye at 0.1 and 0.5%; compounds of the invention: treated or contralateral eye at doses of Table II
Procedure: The pupil diameters are measured visually at the point of maximal vertical diameter, using a millimetric metal standard.

[9] = ocular or topical use unless stated

CC(c1c[nH]cn1)c1cccc(C(=N)N)c1O (single isomer, unassigned; (+)) [D, (+)-2-hydroxy-3-[1-(1H-imidazol-4-yl)ethyl]-benzenecarboximidamide]
IC50 [1]: 0.0039 µM | ΔP [30 min], variation in intraocular pressure ([2]; 0.01% w/v): -14.1% | ΔP [2 h], variation in intraocular pressure ([2]; 0.01% w/v): -17.7% | ΔP [6 h], variation in intraocular pressure ([2]; 0.01% w/v): -15.1% | Lethal dose [3]: 25 mg/kg

CC(c1c[nH]cn1)c1cccc(C(=N)N)c1O (single isomer, unassigned; (-)) [E, (-)-2-hydroxy-3-[1-(1H-imidazol-4-yl)ethyl]-benzenecarboximidamide]
IC50 [1]: 0.2 µM | ΔP [30 min], variation in intraocular pressure ([2]; 0.5% w/v): -11.6% | ΔP [1 h], variation in intraocular pressure ([2]; 0.5% w/v): -12.6% | ΔP [6 h], variation in intraocular pressure ([2]; 0.5% w/v): -6.6% | Hypohemia of the treated eye ([4]; 0.5%): do not induce hypohemia | Lethal dose [3]: 248 mg/kg

N=C(N)c1cccc(Cc2c[nH]cn2)c1O [A, 2-hydroxy-3-(1H-imidazol-4-ylmethyl)-benzenecarboximidamide]
IC50 [1]: 0.062 µM | ΔP [30 min], variation in intraocular pressure ([2]; 0.05% w/v): -5.9% | ΔP [2 h], variation in intraocular pressure ([2]; 0.05% w/v): -18.6% | ΔP [6 h], variation in intraocular pressure ([2]; 0.05% w/v): -1.1% | ΔP [30 min], variation in intraocular pressure ([2]; 0.1% w/v): -9.2% | ΔP [2 h], variation in intraocular pressure ([2]; 0.1% w/v): -21.2% | ΔP [6 h], variation in intraocular pressure ([2]; 0.1% w/v): -16.1% | Hypohemia of the treated eye ([4]; 0.1%): do not induce hypohemia | Lethal dose [3]: > 216 mg/kg

CNC(=N)c1cccc(Cc2c[nH]cn2)c1O [B, 2-hydroxy-3-(1H-imidazol-4-ylmethyl)-N-methyl-benzenecarboximidamide]
IC50 [1]: 2.5 µM | ΔP [30 min], variation in intraocular pressure ([2]; 0.5% w/v): -5.5% | ΔP [1 h], variation in intraocular pressure ([2]; 0.5% w/v): -10.8% | ΔP [2 h], variation in intraocular pressure ([2]; 0.5% w/v): -13.3% | ΔP [3 h], variation in intraocular pressure ([2]; 0.5% w/v): -12.8% | ΔP [6 h], variation in intraocular pressure ([2]; 0.5% w/v): -7.6% | Lethal dose [3]: 230 mg/kg

N=C(NO)c1cccc(Cc2c[nH]cn2)c1O [C, N,2-dihydroxy-3-(1H-imidazol-4-ylmethyl)-benzenecarboximidamide]
IC50 [1]: 0.14 µM | Lethal dose [3]: 232 mg/kg

CC(C)NC(=N)c1cccc(Cc2c[nH]cn2)c1O [F, 2-hydroxy-3-(1H-imidazol-4-ylmethyl)-N-(1-methylethyl)-benzenecarboximidamide]
IC50 [1]: 6.4 µM | Lethal dose [3]: 155 mg/kg

N=C(NN)c1cccc(Cc2c[nH]cn2)c1O [G, 2-hydroxy-3-(1H-imidazol-4-ylmethyl)-benzenecarboximidic acid hydrazide]
IC30, inhibition of the contraction of the guinea-pig ileum ([1]; IC30 printed in the IC50 column): 2.5 µM | Lethal dose [3]: 416 mg/kg

CC(=O)Nc1nnc(S(N)(=O)=O)s1 [acetazolamide]
Side-effects (in words) ([5]; carbonic anhydrase inhibitors, systemic administration): depression of the central nervous system, weight loss and, mainly, bone marrow hypofunction

Clc1cccc(Cl)c1N=C1NCCN1 [clonidine]
IC50 [1]: 0.017 µM | Biphasic effect on intraocular pressure (in words) [2]: initially induces hypertension of the treated eye, which effect increases with the concentration of the product | ΔP [30 min], variation in intraocular pressure ([2]; 0.01% w/v): +8.0% | ΔP [2 h], variation in intraocular pressure ([2]; 0.01% w/v): -8.8% | ΔP [6 h], variation in intraocular pressure ([2]; 0.01% w/v): -9.2% | ΔP [30 min], variation in intraocular pressure ([2]; 0.1% w/v): +23.4% | ΔP [2 h], variation in intraocular pressure ([2]; 0.1% w/v): +36.2% | ΔP [3 h], variation in intraocular pressure ([2]; 0.1% w/v): +11.4% | ΔP [30 min], variation in intraocular pressure ([2]; 0.5% w/v): +31.4% | ΔP [2 h], variation in intraocular pressure ([2]; 0.5% w/v): +39.4% | ΔP [3 h], variation in intraocular pressure ([2]; 0.5% w/v): +8.6% | ΔP in the contralateral eye ([6]; 0.01%, after 2 hours): -9.5% | ΔP in the contralateral eye ([6]; 0.01%, after 6 hours): -9.2% | ΔP in the contralateral eye ([6]; 0.1%, after 2 hours): -10.2% | ΔP in the contralateral eye ([6]; 0.1%, after 6 hours): +2.6% | ΔP in the contralateral eye ([6]; 0.5%, after 2 hours): -26.3% | ΔP in the contralateral eye ([6]; 0.5%, after 6 hours): +15% | Whitening of the conjunctivae ([4]; 0.01%, after 30 minutes): whitening of the conjunctivae is observed after 30 minutes | Whitening of the conjunctivae ([4]; 0.1%, after 1 hour): this effect is still present after 1 hour | Slowing of the heart rate ([7]; 0.01%, after 3 hours): 10.7% | Slowing of the heart rate ([7]; 0.1%, after only 1 hour): 17.9% | Side-effects (in words) [5, 9]: mydriasis, as well as an initial phase of ocular hypertension (biphasic effect) | Change in the pupil diameter / mydriasis (in words) [8]: causes an important mydriasis of the ipsilateral eye

CNCC(O)c1ccc(OC(=O)C(C)(C)C)c(OC(=O)C(C)(C)C)c1 (stereo not shown) [dipivalylepinephrine]
Side-effects (in words) [5, 9]: sensations of burning or irritation
